The values below come from patent US20200399392A1, “INHIBITORS OF PLA2-G1B COFACTORS FOR TREATING CANCER” (priority 2018, published 2020).

Test [1] concerns PLA2-GIB. Put plainly: PLA2-GIB enzymatic assay on [3H] arachidonic acid labelled Jurkat E6.1 T cells. Type of test: cell-based, human. On the procedure:
Jurkat E6.1 T cells (ECACC 88042803) or gC1qR KO Jurkat E6.1 T cells were incubated for 17 h at 5×10^5 cells/ml with 1 μCi/ml of arachidonic acid [5,6,8,9,11,14,15-^3H(N)] (Perkin Elmer, NET298Z250UC) in RPMI 1640 medium (Lonza) supplemented with 10% FBS, 50 mM HEPES pH 7.4, glutamine, penicillin, streptomycin and fungizone at 2 ml/well in 6-well plates at 37° C. in a 5% CO2 humidified atmosphere. Cells were washed twice with RPMI with 10% FBS by centrifugation at 300×g for 10 minutes at room temperature and then frozen in 90% FBS 10% DMSO at 10^7 cells/ml/vial at −80° C. Percent of [3H] arachidonic acid in CD4 T cells is the (1 minus ratio of [3H] arachidonic acid in the supernatant of CD4 T cells without cells (cpm/ml) on total [3H] arachidonic acid in supernatant and cells (cpm/ml).
To test PLA2-GIB activity on [3H] arachidonic acid labelled Jurkat E6.1 T lymphocytes, cells were unfrozen in 10% FBS RPMI preheated at 37° C. by centrifugation at 300×g for 10 minutes at room temperature, washed twice in 2.5% FBS RPMI, and equilibrated at 5×10^4 or 10^5 Jurkat E6.1 T cells/400 μl/well in 24-well polystyrene plates for 1 h30 at 37° C. in a 5% CO2 humidified atmosphere. Then HCV core solution or vehicle dilution in 2.5% FBS RPMI at 5.95 μM was mixed with an equal volume of a PLA2GIB solution at 630 nM or 2 μM 2.5% FBS RPMI and 100 μl were added per well at the same time for 2 h. For peptide treatments, cells were pretreated for 2 h, 4 h or 21 h, as indicated on figures, with 50 μl per well of peptide solutions at 110 μM or 55 μM in 2.5% FBS RPMI. Then 50 μl per well of PLA2-GIB at 630 nM or 2 μM 2.5% FBS RPMI or medium alone were added for 2 h. Cells and supernatant were collected in eppendorf tubes and centrifuged at 580×g for 10 minutes at room temperature. The [3H] arachidonic acid released in cell supernatant was quantified in 300 μl with 16 ml of Ultima gold (Perkin Elmer, 6013329) in low diffusion vials (Perkin Elmer, 6000477) on a counter (tri-Carb 2800 TR liquid scintillation analyzer, Perkin Elmer).

The subject of test [2] is gC1qR KO Jurkat E6.1 T cells. Kind of test: PLA2-GIB enzymatic assay on [3H] arachidonic acid labelled gC1qR KO Jurkat E6.1 T cells. Type of test: cell-based, human. Conditions: gC1qR KO cells (1D5 or 2G9), pretreatment 21 h, FIG. 13. An excerpt: Generation of gC1qR KO Jurkat E6.1 T cells—The global strategy for the development of Jurkat cells deprived of C1QBP is based on the design of a targeting vector permitting bi-allelic inactivation of C1QBP gene via homologous recombination. Human C1QBP homologous regions isogenic with the Jurkat E6.1 T cell line (ECACC 88042803) has been used. The targeting vector has been synthetized by Genewiz and cloned into the pUC57-Amp vector. […] The NeoR cassette was cloned using BamHI/NotI restriction sites. The targeting vector has been verified by DNA restriction digestion cut with selected restriction enzymes (APaL1, Drd1, Pvu1, Pvu2, BamH1/NotI, Not1/NcoI, NEB) and target region sequencing. The DNA primers corresponding to C1QBP sgRNA (1828-Crispr_1A: CACC-[…] and 1828-Crispr_1B: AAAC-[…]) were hybridized and cloned (Quick Ligase-New England Biolabs, NEB) into the pX330 plasmid (Addgene, 42230; Feng Zhang, MIT) using BbsI restriction site (NEB).
The Jurkat cells (5×10^6) were resuspended in 100 μL of Opti-MEM and 7 μg of CRISPR/Cas9 plasmid and 2.5 μg of targeting vector were added. The cells were electroporated with a Nepa21 electroporator. After cell selection in G418 selective medium, the Jurkat cell clones were prescreened by PCR genotyping. Independent cell clones knocked-out for C1QBP gene were amplified and verified by PCR genotyping and target region sequencing. […]

Regarding “NH2-PWNASWSNKSLDDIW—COOH (H-PWNASWSNKSLDDIW-OH) [PEP3]”, the “PLA2-GIB activity vs scrambled PEP3” value in test [1] (Jurkat E6.1 WT cells, pretreatment 21 h, FIG. 13) is listed as “increased significantly”; in test [2], “not”. Besides, the “PLA2-GIB activity on the membrane of Jurkat E6.1 T cells vs scrambled PEP3” value in test [1] (pretreatment 4 h or more with peptide 11 μM, 200 nM PLA2-GIB, FIG. 11) is on record as “significantly increased”.
